Values quoted from earlier work as cited in patent publication US12569533B2, “Bruising and filler compositions and methods for use” (Alastin Skincare, Inc., priority 2021, dated 2026).

Tested on: hyaluronic acid level
Settings: ex vivo human skin model

In the case of `CCCCCCCC(=O)CCc1ccc(O)c(OC)c1` [Hydroxymethoxyphenyl decanone], the “stimulation of dermal hyaluronic acid level versus placebo” value (dermal) is given as 259% and the “stimulation of epidermal hyaluronic acid level versus placebo” value (epidermal) is given as 198%.
